From patent US8758833B2, “Cosmetic composition for the treatment of acne comprising a peptide extract of Schisandra” (Laboratoires Expanscience, priority 2009, dated 2014)

Assays:
[1] = system: IL-1α released by keratinocytes; experiment: Assay of IL-1α released by PMA-stimulated keratinocytes (ELISA); type: cell-based
Experimental: (§1) Keratinocytes were seeded in 24-well plates in KGM2 medium. After 24 hours of incubation, the cells were pretreated with Schisandra peptides for 24 hours. Next, the cells were stimulated by adding […] PMA (phorbol 12-myristate 13-acetate, Sigma) for 24 hours.
(§2) After the treatment, the cell supernatants were collected and IL-1α and VEGF were assayed using ELISA kits (R&D Systems) according to the manufacturer's instructions.
(§3) An MTT (IL-1α) or neutral red (VEGF) test was carried out on the cell layers: OD, proportional to the quantity of living cells, is read at 570 nm (MTT) or 540 nm (red neutral).
(§4) The quantities of IL-1α and VEGF are expressed in pg/ml/OD570 and pg/ml/OD540, respectively.

[2] = system: VEGF in keratinocytes; experiment: Assay of VEGF in PMA-stimulated keratinocytes (ELISA); type: cell-based; conditions: Positive control (PMA) alone; non-stimulated control 208.166
Experimental: as §1, §2, §3, §4

| Compound | release of IL-1α induced by stimulation (% vs unstimulated) ([1]; keratinocytes stimulated by PMA for 24 hours) | Average VEGF [2] | inhibition at 0.1 µM ([1]; Keratinocyte, pretreatment with 10^−7 M dexamethasone, keratinocytes stimulated by PMA 24 hours, read-out: inhibition of the IL-1α release induced by PMA) |
| --- | --- | --- | --- |
| CCCCCCCCCCCCCC(=O)O[C@@H]1[C@@H](C)[C@@]2(O)[C@@H](C=C(CO)C[C@]3(O)C(=O)C(C)=C[C@@H]23)[C@@H]2C(C)(C)[C@]12OC(C)=O [PMA, phorbol 12-myristate 13-acetate] | +123% | 767.941 pg/mL | – |
| C[C@@H]1C[C@H]2[C@@H]3CCC4=CC(=O)C=C[C@]4(C)[C@@]3(F)[C@@H](O)C[C@]2(C)[C@@]1(O)C(=O)CO [dexamethasone] | – | – | 100% |
